Here are results for one compound from paper PMC5140066, “Electrophysiological Characteristics of Human iPSC-Derived Cardiomyocytes for the Assessment of Drug-Induced Proarrhythmic Potential” (PLoS ONE, 2016).

The structures appear in SMILES notation.

The assay deals with human induced pluripotent stem cell-derived cardiomyocytes (hiPSC-CMs). Briefly: Field potential recording of hiPSC-CM sheets on multi-electrode array (MEA). The format is cell-based. On the procedure: The cells were thawed and suspended in iCell Cardiomyocytes Plating Medium (Cellular Dynamics International), then plated (approximately 2 × 10^6 cells/well) in 6-well tissue-culture plates coated with 0.1% gelatin. After two days of incubation at 37°C under an atmosphere of 5% CO2, the plating medium was replaced with iCell Cardiomyocytes Maintenance Medium (Cellular Dynamics International); this medium was used as the culture medium throughout the experiments and was replaced every 1 to 3 days. The cells were cultured for 7 to 14 days in a 5% CO2 incubator at 37°C and then re-plated onto MEA probes (MED-P515A or MED-PG515A; Alpha Med Scientific, Osaka, Japan).
The recording areas of the MEA probes were coated with fibronectin (Becton Dickinson, Franklin Lakes, NJ, USA; Invitrogen, Carlsbad, CA, USA; Corning, Corning, NY, USA). Fibronectin was dissolved in distilled water or Dulbecco's phosphate-buffered saline (PBS) [−] to give 50 μg/mL, the recording areas were covered with 2 μL fibronectin solution, and then the MEA probes were incubated at 37°C for at least 1 h. […] After discarding the fibronectin solution from the MEA probes without complete drying, the cell suspension at a density of 3.0 × 10^4 cells in a 2 μL droplet was re-plated onto the fibronectin-coated area of each MEA probe and incubated for 1 to 3 h in a 5% CO2 incubator at 37°C. Each well of the MEA probes was then filled with maintenance medium at a volume of 1 mL/well. The medium was replaced every 1 to 3 days thereafter, and the cells were cultured for 5 to 14 days to obtain high density cardiomyocyte-sheets with spontaneous and synchronous electrical activities.
Prior to recording FPs, the cardiomyocyte-sheets were equilibrated for at least 30 min in a 5% CO2 incubator at 37°C in fresh culture medium. The MEA probes were then transferred to a FP measurement apparatus (MED64 system; Alpha Med Scientific, Osaka, Japan) and covered with a lid through which humidified gas containing 5% CO2 was provided. […] Analogue FP signals from the spontaneously beating cardiomyocyte-sheets were acquired through a 0.1-Hz high-pass filter and a 5-kHz low-pass filter, and digitized at 20 kHz using the MED64 system. […] Compound stock solutions were prepared using DMSO at 1000-fold the target concentrations of the test compounds. The stock solutions were diluted with the maintenance medium to obtain the appropriate compound concentrations, then 1/10th to 1/50th the volume of the medium in the wells was exchanged with an equal volume of the compound-containing medium. The compounds were applied in a cumulative manner to the wells. The concentration of DMSO was 0.5–0.6% at the highest concentration of the test compounds. […] FPD (ms) and ISI (ms) were analyzed using Mobius QT software designed by WitWerx (Santa Cruz, CA, USA) (Fig 1b).
Baseline FP waveforms that met the following criteria were used for analysis. […] In the FP signals, EAD and TA were defined as slow negative spikes and a sharp deflection with an amplitude ≥ ± 100 μV, respectively (Fig 1c). EAD, TA or both usually appear during or after the second positive deflection. ISI, FPD and FPDcF were not calculated for concentrations in which EAD or TA were observed.
As previously mentioned, total 96 data equally from 4 facilities each were used for the analysis (24 data per facility). […] The root mean squared prediction error (RMSE) was used to show the level of accuracy of the equation predicted for the observed data (Fig 2). With categorical data analysis of FPD, inter-facilities differences were investigated with Kruskal-Wallis test (Fig 4).

For `Cc1cccc(CCN2CCC(C(=O)c3ccc(NS(C)(=O)=O)cc3)CC2)n1` [E-4031], the “Slope factor of FPD-ISI regression, % change” value is, setting by setting: (E-4031 1 nM) 0.9347; (E-4031 10 nM) 1.8977. Further, for the setting “E-4031 10 nM (sham 0.1653)”, the “Slope factor of FPD-ISI regression, absolute FPD (ms)” value is recorded as 0.3328. Besides, under “from FPD-ISI plots”, the “Use (rate) dependence of FPD prolongation” value is recorded as “induced FPD prolongation in a reverse use-dependent manner”.
